Measured values as given in patent US20240132531A1, “NOVEL GALACTOSIDE INHIBITOR OF GALECTINS” (GALECTO BIOTECH AB, priority 2020, published 2024).
pKd: −log10 of the molar value.

What was measured:
galectin-1 = galectin-1 (Homo sapiens, UniProt P09382); test: Fluorescence anisotropy assay, affinity for galectin-1; format: binding; conditions: compound as inhibitor of the interaction between galectin and a fluorescein tagged saccharide probe; read-out: Gal-1 Kd
Description: (§1) The affinity of Example 1-39 for galectins were determined by a fluorescence anisotropy assay where the compound was used as an inhibitor of the interaction between galectin and a fluorescein tagged saccharide probe as described Sarme, P., Kahl-Knutsson, B., Huflejt, M., Nilsson, U. J., and Leffler H. (2004) Fluorescence polarization as an analytical tool to evaluate galectin-ligand interactions. Anal. Biochem. 334: 36-47, (Sarme et al., 2004) and Monovalent interactions of Galectin-1 By Salomonsson, Emma; Larumbe, Amaia; Tejler, Johan; Tullberg, Erik; Rydberg, Hanna; Sundin, Anders; Khabut, Areej; Frejd, Torbjorn; Lobsanov, Yuri D.; Rini, James M.; et al, From Biochemistry (2010), 49(44), 9518-9532, (Salomonsson et al., 2010).

galectin-3 = galectin-3 (Homo sapiens, UniProt P17931); test: Fluorescence anisotropy assay, affinity for galectin-3; format: binding; conditions: compound as inhibitor of the interaction between galectin and a fluorescein tagged saccharide probe; read-out: Gal-3 Kd
Chain of galectin-3 (P17931 whole entry): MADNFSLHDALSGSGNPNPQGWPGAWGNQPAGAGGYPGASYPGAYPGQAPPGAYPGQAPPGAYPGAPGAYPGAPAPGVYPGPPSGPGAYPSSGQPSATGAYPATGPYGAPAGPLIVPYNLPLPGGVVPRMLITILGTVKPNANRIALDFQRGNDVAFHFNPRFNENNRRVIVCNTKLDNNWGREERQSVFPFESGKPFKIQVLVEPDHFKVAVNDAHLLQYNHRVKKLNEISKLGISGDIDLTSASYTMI
Description: as §1

Chain of galectin-1 (P09382 whole entry): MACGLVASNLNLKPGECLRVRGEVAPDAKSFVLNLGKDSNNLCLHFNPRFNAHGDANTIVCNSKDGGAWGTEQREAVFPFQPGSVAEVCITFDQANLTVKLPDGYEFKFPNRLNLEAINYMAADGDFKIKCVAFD

Molecule COC1[C@@H](n2cc(-c3nc(Cl)cs3)nn2)[C@@H](O)C(CO)O[C@H]1c1ccnn1-c1cc(Br)c(F)cc1C(F)(F)F (stereo partly drawn) [Example 23, 5-Bromo-1-{5-{3-[4-(4-chlorothiazol-2-yl)-1H-1,2,3-triazol-1-yl]-3-deoxy-2-O-methyl-β-D-galactopyranosyl}-1H-1,2-pyrazol-1-yl}-4-fluoro-2-(trifluoromethyl)benzene] has a pKd (galectin-1) of 7.62 and a pKd (galectin-3) of 6.54.
COC1C(n2cc(-c3csc(O)n3)nn2)[C@@H](O)C(CO)O[C@H]1c1ccnn1-c1cc(Cl)ccc1C(F)(F)F (stereo partly drawn) [Example 35, 5-Chloro-1-{5-{3-deoxy-3-[4-(2-hydroxythiazol-4-yl)-1H-1,2,3-triazol-1-yl]-2-O-methyl-β-D-galactopyranosyl}-1H-1,2-pyrazol-1-yl}-2-(trifluoromethyl)benzene] was tested, and the pKd (galectin-1) was 7.51 and the pKd (galectin-3) was 5.38.
With COC1C(n2cc(-c3nc(Cl)cs3)nn2)[C@@H](O)C(CO)O[C@H]1c1ccnn1-c1cc(Br)cnc1C(F)(F)F (stereo partly drawn) [Example 33, 5-Bromo-3-{5-{3-[4-(4-chlorothiazol-2-yl)-1H-1,2,3-triazol-1-yl]-3-deoxy-2-O-methyl-β-D-galactopyranosyl}-1H-1,2-pyrazol-1-yl}-2-(trifluoromethyl)pyridine] the pKd (galectin-1) was 7.49 and the pKd (galectin-3) was 6.28.
Molecule COC1C(n2cc(-c3nc(Cl)cs3)nn2)[C@@H](O)C(CO)O[C@H]1c1cc(Cl)nn1-c1cc(Cl)ccc1C(F)(F)F (stereo partly drawn) [Example 25, 1-{5-{3-[4-(4-Chlorothiazol-2-yl)-1H-1,2,3-triazol-1-yl]-3-deoxy-2-O-methyl-β-D-galactopyranosyl}-3-chloro-1H-1,2-pyrazol-1-yl}-5-chloro-2-(trifluoromethyl)benzene] has a pKd (galectin-1) of 7.40 and a pKd (galectin-3) of 6.74.
COC1C(n2cc(-c3ncc(C)s3)nn2)[C@@H](O)C(CO)O[C@H]1c1ccnn1-c1cc(Cl)ccc1C(F)(F)F (stereo partly drawn) [Example 3, 5-Chloro-1-{5-{3-deoxy-3-[4-(5-methylthiazol-2-yl)-1H-1,2,3-triazol-1-yl]-2-O-methyl-β-D-galactopyranosyl}-1H-1,2-pyrazol-1-yl}-2-(trifluoromethyl)benzene] gave a pKd (galectin-1) of 6.33 and a pKd (galectin-3) of 6.36.
For COC1C(n2cc(-c3nc(Cl)cs3)nn2)[C@@H](O)C(CO)O[C@H]1c1ccnn1-c1cc(Br)ccc1C(F)(F)F (stereo partly drawn) [Example 20, 5-Bromo-1-{5-{3-[4-(4-chlorothiazol-2-yl)-1H-1,2,3-triazol-1-yl]-3-deoxy-2-O-methyl-β-D-galactopyranosyl}-1H-1,2-pyrazol-1-yl}-2-(trifluoromethyl)benzene], the pKd (galectin-1) was 7.51 and the pKd (galectin-3) was 6.39.
COC1C(n2cc(-c3nc(Cl)cs3)nn2)[C@@H](O)C(CO)O[C@H]1c1cc(C)nn1-c1cc(Cl)ccc1C(F)(F)F (stereo partly drawn) [Example 13, 1-{5-{3-[4-(4-Chlorothiazol-2-yl)-1H-1,2,3-triazol-1-yl]-3-deoxy-2-O-methyl-β-D-galactopyranosyl}-3-methyl-1H-1,2-pyrazol-1-yl}-5-chloro-2-(trifluoromethyl)benzene] was tested, and the pKd (galectin-1) was 7.44 and the pKd (galectin-3) was 6.54.
Molecule C=C(C)c1cc([C@@H]2OC(CO)[C@H](O)C(n3cc(-c4nc(Cl)cs4)nn3)C2OC)n(-c2cc(Cl)ccc2C(F)(F)F)n1 (stereo partly drawn) [Example 27, 1-{5-{3-[4-(4-Chlorothiazol-2-yl)-1H-1,2,3-triazol-1-yl]-3-deoxy-2-O-methyl-β-D-galactopyranosyl}-3-(1-methylethenyl)-1H-1,2-pyrazol-1-yl}-5-chloro-2-(trifluoromethyl)benzene] has a pKd (galectin-1) of 6.27 and a pKd (galectin-3) of 5.92.
For OCC1O[C@@H](c2ccnn2-c2cc(Br)c(F)cc2C(F)(F)F)C(O)[C@@H](n2cc(-c3nc(Cl)cs3)nn2)[C@H]1O (stereo partly drawn) [Example 24, 5-Bromo-1-{5-{3-[4-(4-chlorothiazol-2-yl)-1H-1,2,3-triazol-1-yl]-3-deoxy-β-D-galactopyranosyl}-1H-1,2-pyrazol-1-yl}-4-fluoro-2-(trifluoromethyl)benzene], the pKd (galectin-1) was 7.44 and the pKd (galectin-3) was 6.70.
CCc1cc([C@@H]2OC(CO)[C@H](O)C(n3cc(-c4nc(Cl)cs4)nn3)C2OC)n(-c2cc(Cl)ccc2C(F)(F)F)n1 (stereo partly drawn) [Example 30, 1-{5-{3-[4-(4-Chlorothiazol-2-yl)-1H-1,2,3-triazol-1-yl]-3-deoxy-2-O-methyl-β-D-galactopyranosyl}-3-ethyl-1H-1,2-pyrazol-1-yl}-5-chloro-2-(trifluoromethyl)benzene] gave a pKd (galectin-1) of 7.00 and a pKd (galectin-3) of 6.17.
COC1C(n2cc(-c3csc(O)n3)nn2)[C@@H](O)C(CO)O[C@H]1c1ccnn1-c1cc(Cl)c(Cl)cc1C(F)(F)F (stereo partly drawn) [Example 36, 4,5-Dichloro-1-{5-{3-deoxy-3-[4-(2-hydroxythiazol-4-yl)-1H-1,2,3-triazol-1-yl]-2-O-methyl-β-D-galactopyranosyl}-1H-1,2-pyrazol-1-yl}-2-(trifluoromethyl)benzene] showed a pKd (galectin-1) of 7.59 and a pKd (galectin-3) of 5.03.
For COC1C(n2cc(-c3nc(Cl)cs3)nn2)[C@@H](O)C(CO)O[C@H]1c1cc(Br)nn1-c1cc(Cl)ccc1C(F)(F)F (stereo partly drawn) [Example 26, 1-{3-Bromo-5-{3-[4-(4-chlorothiazol-2-yl)-1H-1,2,3-triazol-1-yl]-3-deoxy-2-O-methyl-β-D-galactopyranosyl}-1H-1,2-pyrazol-1-yl}-5-chloro-2-(trifluoromethyl)benzene], the pKd (galectin-1) was 7.18 and the pKd (galectin-3) was 6.12.
COC1C(n2cc(-c3csc(N)n3)nn2)[C@@H](O)C(CO)O[C@H]1c1ccnn1-c1cc(Cl)ccc1C(F)(F)F (stereo partly drawn) [Example 34, 1-{5-{3-[4-(2-Aminothiazol-4-yl)-1H-1,2,3-triazol-1-yl]-3-deoxy-2-O-methyl-β-D-galactopyranosyl}-1H-1,2-pyrazol-1-yl}-5-chloro-2-(trifluoromethyl)benzene] showed a pKd (galectin-1) of 7.31 and a pKd (galectin-3) of 5.17.
C=Cc1cc([C@@H]2OC(CO)[C@H](O)C(n3cc(-c4nc(Cl)cs4)nn3)C2OC)n(-c2cc(Cl)ccc2C(F)(F)F)n1 (stereo partly drawn) [Example 29, 1-{5-{3-[4-(4-Chlorothiazol-2-yl)-1H-1,2,3-triazol-1-yl]-3-deoxy-2-O-methyl-β-D-galactopyranosyl}-3-ethenyl-1H-1,2-pyrazol-1-yl}-5-chloro-2-(trifluoromethyl)benzene] was tested, and the pKd (galectin-1) was 6.72 and the pKd (galectin-3) was 6.32.
Molecule COC1C(n2cc(-c3nc(C)cs3)nn2)[C@@H](O)C(CO)O[C@H]1c1ccnn1-c1cc(Cl)ccc1C(F)(F)F (stereo partly drawn) [Example 4, 5-Chloro-1-{5-{3-deoxy-3-[4-(4-methylthiazol-2-yl)-1H-1,2,3-triazol-1-yl]-2-O-methyl-β-D-galactopyranosyl}-1H-1,2-pyrazol-1-yl}-2-(trifluoromethyl)benzene] has a pKd (galectin-1) of 6.59 and a pKd (galectin-3) of 5.49.
COC1C(n2cc(-c3nccs3)nn2)[C@@H](O)C(CO)O[C@H]1c1ccnn1-c1cc(Cl)ccc1C(F)(F)F (stereo partly drawn) [Example 2, 5-Chloro-1-{5-{3-deoxy-2-O-methyl-3-[4-(2-thiazolyl)-1H-1,2,3-triazol-1-yl]-β-D-galactopyranosyl}-1H-1,2-pyrazol-1-yl}-2-(trifluoromethyl)benzene] showed a pKd (galectin-1) of 6.77 and a pKd (galectin-3) of 5.12.
COC1C(n2cc(-c3nc(Cl)cs3)nn2)[C@@H](O)C(CO)O[C@H]1c1ccnn1-c1cc(Cl)c(F)cc1C(F)(F)F (stereo partly drawn) [Example 22, 1-{5-{3-[4-(4-Chlorothiazol-2-yl)-1H-1,2,3-triazol-1-yl]-3-deoxy-2-O-methyl-β-D-galactopyranosyl}-1H-1,2-pyrazol-1-yl}-5-chloro-4-fluoro-2-(trifluoromethyl)benzene] showed a pKd (galectin-1) of 7.37 and a pKd (galectin-3) of 6.07.
